According to the Kinase Knowledgebase extract (Sharma et al. 2016):

Columns and labels:
PIK3CD (Human) = PIK3CD (Human) (UniProt O00329); assay: Assessment of PIK3CD Kinase Activity
PIK3CG (human) = PIK3CG (human) (UniProt P48736); assay: Assessment of PIK3CG Kinase Activity
PIK3CA (human) = PIK3CA (human) (UniProt P42336); assay: Assessment of PIK3CA Kinase Activity
PIK3CB (Human) = PIK3CB (Human) (UniProt P42338); assay: Assessment of PIK3CB Kinase Activity
Sequence of PIK3CB (Human) (P42338 whole entry, looked up): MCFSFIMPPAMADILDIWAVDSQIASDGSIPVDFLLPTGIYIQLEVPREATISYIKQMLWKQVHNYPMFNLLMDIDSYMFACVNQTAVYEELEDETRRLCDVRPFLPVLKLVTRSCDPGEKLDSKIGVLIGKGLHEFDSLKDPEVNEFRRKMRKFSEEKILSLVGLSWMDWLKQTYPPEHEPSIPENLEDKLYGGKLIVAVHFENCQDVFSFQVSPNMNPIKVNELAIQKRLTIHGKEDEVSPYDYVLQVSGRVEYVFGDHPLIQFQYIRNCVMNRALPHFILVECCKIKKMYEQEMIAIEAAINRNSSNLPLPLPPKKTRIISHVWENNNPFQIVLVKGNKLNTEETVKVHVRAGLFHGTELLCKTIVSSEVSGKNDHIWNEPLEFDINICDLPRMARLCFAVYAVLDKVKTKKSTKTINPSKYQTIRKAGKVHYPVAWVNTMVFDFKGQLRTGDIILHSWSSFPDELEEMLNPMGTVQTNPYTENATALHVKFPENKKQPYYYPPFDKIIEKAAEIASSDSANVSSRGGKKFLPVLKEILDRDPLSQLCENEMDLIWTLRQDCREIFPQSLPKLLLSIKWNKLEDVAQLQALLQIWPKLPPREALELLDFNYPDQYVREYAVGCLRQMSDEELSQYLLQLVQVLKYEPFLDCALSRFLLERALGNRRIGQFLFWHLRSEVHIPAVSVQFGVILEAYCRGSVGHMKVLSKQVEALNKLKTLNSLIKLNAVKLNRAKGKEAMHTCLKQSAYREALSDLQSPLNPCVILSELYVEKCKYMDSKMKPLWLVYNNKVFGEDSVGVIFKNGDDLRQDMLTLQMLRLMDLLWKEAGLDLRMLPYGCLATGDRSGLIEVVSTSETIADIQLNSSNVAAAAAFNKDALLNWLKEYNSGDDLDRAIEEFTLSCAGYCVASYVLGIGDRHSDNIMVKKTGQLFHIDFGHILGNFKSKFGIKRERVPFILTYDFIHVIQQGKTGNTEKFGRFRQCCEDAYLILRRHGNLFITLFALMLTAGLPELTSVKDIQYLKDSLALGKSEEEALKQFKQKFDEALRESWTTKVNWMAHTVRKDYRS

Sequence of PIK3CA (human) (P42336 whole entry, looked up): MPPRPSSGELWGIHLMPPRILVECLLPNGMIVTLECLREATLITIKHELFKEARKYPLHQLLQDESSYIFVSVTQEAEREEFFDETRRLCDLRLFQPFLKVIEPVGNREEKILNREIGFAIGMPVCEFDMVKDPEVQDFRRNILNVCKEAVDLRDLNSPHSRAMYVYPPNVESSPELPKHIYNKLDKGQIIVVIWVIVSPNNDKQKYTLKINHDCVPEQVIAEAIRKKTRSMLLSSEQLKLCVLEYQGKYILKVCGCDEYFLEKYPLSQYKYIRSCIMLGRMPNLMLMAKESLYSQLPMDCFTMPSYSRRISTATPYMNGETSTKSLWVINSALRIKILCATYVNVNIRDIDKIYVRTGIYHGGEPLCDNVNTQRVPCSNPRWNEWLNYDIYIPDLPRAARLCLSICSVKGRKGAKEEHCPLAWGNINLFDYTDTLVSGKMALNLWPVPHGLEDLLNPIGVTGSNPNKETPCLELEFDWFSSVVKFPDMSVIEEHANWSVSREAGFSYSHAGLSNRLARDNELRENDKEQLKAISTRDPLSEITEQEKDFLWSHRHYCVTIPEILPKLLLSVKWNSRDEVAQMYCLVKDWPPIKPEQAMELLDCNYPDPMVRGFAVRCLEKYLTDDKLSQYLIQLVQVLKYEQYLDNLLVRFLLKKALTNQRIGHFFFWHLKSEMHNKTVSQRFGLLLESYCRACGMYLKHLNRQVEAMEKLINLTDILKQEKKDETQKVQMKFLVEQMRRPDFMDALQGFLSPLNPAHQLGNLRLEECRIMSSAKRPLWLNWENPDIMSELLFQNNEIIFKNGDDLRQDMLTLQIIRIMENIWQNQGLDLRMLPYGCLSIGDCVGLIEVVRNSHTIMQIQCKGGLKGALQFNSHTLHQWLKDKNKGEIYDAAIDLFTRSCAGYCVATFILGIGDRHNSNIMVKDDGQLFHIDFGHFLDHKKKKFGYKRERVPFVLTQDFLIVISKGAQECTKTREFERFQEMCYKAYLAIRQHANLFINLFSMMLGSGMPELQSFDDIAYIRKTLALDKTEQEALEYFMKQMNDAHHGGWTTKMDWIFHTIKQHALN
Sequence of PIK3CD (Human) (O00329 whole entry, looked up): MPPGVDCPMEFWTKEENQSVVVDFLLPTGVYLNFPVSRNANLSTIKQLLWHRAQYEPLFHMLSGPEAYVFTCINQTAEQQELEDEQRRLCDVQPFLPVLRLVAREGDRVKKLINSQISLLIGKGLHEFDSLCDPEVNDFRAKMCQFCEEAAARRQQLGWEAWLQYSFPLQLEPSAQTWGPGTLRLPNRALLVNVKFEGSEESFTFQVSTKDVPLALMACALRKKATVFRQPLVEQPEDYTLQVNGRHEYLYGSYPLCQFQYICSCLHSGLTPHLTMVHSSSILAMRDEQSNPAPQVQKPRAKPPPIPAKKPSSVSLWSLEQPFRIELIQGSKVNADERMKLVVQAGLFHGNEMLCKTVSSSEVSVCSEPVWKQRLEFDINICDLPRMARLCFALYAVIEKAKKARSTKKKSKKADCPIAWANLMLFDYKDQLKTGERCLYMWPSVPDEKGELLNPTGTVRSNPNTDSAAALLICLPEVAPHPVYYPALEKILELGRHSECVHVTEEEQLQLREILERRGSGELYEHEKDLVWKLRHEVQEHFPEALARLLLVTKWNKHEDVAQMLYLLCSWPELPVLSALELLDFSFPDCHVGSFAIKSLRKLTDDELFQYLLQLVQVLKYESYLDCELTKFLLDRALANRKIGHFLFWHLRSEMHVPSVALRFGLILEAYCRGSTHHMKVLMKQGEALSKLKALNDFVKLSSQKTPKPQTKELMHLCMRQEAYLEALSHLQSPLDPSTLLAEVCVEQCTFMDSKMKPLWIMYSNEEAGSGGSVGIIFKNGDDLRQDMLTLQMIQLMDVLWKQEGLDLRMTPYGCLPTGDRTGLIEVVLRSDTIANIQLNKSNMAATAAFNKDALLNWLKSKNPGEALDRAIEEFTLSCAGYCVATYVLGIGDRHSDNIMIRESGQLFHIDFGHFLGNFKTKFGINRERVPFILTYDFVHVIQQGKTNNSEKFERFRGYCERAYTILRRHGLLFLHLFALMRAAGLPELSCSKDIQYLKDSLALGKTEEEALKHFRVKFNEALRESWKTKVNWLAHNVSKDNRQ
Sequence of PIK3CG (human) (P48736 whole entry, looked up): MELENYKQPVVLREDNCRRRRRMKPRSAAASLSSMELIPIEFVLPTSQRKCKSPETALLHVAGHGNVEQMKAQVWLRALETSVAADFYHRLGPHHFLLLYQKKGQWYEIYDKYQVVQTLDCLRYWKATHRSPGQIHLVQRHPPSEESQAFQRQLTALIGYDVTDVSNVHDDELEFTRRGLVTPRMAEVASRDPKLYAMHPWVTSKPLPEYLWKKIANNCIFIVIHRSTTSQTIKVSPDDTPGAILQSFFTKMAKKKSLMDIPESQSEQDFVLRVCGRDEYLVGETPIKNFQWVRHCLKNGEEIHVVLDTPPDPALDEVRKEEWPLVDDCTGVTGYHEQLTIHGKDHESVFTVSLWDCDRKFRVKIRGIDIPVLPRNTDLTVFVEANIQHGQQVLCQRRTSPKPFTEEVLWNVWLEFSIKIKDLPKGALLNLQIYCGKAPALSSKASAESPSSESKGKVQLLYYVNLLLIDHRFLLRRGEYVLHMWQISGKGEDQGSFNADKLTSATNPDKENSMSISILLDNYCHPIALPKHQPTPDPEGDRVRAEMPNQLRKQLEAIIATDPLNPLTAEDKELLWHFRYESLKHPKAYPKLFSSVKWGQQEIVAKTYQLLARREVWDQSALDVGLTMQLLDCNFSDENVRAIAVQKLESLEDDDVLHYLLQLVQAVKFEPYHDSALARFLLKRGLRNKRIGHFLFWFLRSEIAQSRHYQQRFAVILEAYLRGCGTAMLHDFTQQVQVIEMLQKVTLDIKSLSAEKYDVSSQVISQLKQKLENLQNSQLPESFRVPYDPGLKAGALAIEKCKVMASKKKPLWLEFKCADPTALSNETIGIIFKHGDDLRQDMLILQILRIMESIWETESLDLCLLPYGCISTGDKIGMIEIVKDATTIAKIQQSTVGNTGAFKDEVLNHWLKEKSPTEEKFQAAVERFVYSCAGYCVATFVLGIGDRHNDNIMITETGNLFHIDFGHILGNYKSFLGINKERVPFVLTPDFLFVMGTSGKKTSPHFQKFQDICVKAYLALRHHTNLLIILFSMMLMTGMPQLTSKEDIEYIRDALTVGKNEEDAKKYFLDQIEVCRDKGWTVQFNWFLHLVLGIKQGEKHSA

SMILES	IC50 (PIK3CD (Human)) [nM]	IC50 (PIK3CG (human)) [nM]	IC50 (PIK3CA (human)) [nM]	IC50 (PIK3CB (Human)) [nM]
NC(=O)C=Cc1nn(Cc2cc3ccccc3nc2-c2ccccc2F)c2ncnc(N)c12	100 to 1000			
Nc1ncnc2c1c(-c1ccc3cn[nH]c3c1)nn2Cc1cc2ccccc2nc1N1CCCC1	≤ 100			
CCC(c1cc2ccccc2nc1N1CCCC1)n1nc(C#C[C@@H](C)O)c2c(N)ncnc21 (some centres not stated)	≤ 100			
CC(=O)Nc1nc2ccc(-c3nn(Cc4nc5ccccc5nc4N4CCCC4)c4ncnc(N)c34)cc2s1	≤ 100	≤ 100	≤ 100	
Nc1nc2ccc(-c3nn(Cc4nc5ccccc5nc4N4CCCC4)c4ncnc(N)c34)cc2s1	≤ 100	≤ 100	100 to 1000	
CN1CCN(c2nc3ccccc3cc2Cn2nc(-c3ccc4nc(N)sc4c3)c3c(N)ncnc32)CC1	≤ 100	≤ 100	≤ 100	≤ 100
CN1CCN(c2nc3ccccc3nc2Cn2nc(-c3cc(O)cc(F)c3)c3c(N)ncnc32)CC1	≤ 100			100 to 1000
Nc1ncnc2c1c(C=C1SC(=O)NC1=O)nn2Cc1cc2ccccc2nc1-c1ccccc1F	≤ 100	≤ 100		
CC(=O)Nc1nc2ccc(-c3nn(Cc4nc5ccccc5nc4N4CCN(C)CC4)c4ncnc(N)c34)cc2s1	≤ 100	100 to 1000	100 to 1000	≤ 100
Cc1nccn1-c1nc2ccccc2cc1Cn1nc(-c2ccc3nc(N)sc3c2)c2c(N)ncnc21	≤ 100		100 to 1000	

Second part, the compound after the results:

IC50 (PIK3CD (Human)) [nM]	IC50 (PIK3CG (human)) [nM]	IC50 (PIK3CA (human)) [nM]	IC50 (PIK3CB (Human)) [nM]	SMILES
≤ 100				Nc1ncnc2c1c(-c1cccc(O)c1)nn2Cc1cc2ccccc2nc1-c1cccnc1
≤ 100	≤ 100			Cc1ccccc1-c1nc2ccccc2cc1Cn1nc(-c2ccc3nc(N)sc3c2)c2c(N)ncnc21
≤ 100				Nc1nc2ccc(-c3nn(Cc4cc5ccccc5nc4-c4ccccc4C(F)(F)F)c4ncnc(N)c34)cc2[nH]1
≤ 100	≤ 100	100 to 1000	100 to 1000	CC(c1cc2ccccc2nc1-c1ccccc1)n1nc(-c2cc(O)cc(F)c2)c2c(N)ncnc21 (configuration not stated)
100 to 1000				Nc1ncc(-c2nn(Cc3cc4ccccc4nc3-c3ccccc3)c3ncnc(N)c23)cn1
